Two compounds from publication PMC2787382 (The Journal of Biological Chemistry, 2009) can be followed below.

One may read the EC50 as the concentration giving half of the maximal effect. Read a low EC50 as an effect from little substance.

The target in test [1] is T1, dP2XE (Dictyostelium discoideum, UniProt Q54JH4).
T1 sequence (Q54JH4 1-388): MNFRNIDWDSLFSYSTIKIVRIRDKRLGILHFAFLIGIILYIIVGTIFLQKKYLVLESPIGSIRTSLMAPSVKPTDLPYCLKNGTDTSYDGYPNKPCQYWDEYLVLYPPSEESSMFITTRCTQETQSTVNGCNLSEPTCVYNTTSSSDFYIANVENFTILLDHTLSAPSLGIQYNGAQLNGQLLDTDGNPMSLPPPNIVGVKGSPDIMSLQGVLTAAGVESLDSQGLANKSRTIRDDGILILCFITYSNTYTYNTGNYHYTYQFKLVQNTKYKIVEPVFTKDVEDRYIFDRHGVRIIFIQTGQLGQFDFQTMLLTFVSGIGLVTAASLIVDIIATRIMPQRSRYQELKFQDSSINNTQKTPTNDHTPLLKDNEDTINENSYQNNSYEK
In words: cell-based.

Another test has as its target dP2XA (Dictyostelium discoideum, UniProt Q86JM7). In words: two-electrode voltage clamp, Xenopus oocytes, peak current. The class given is cell-based.
The target of another test is T2, dP2XB (Dictyostelium discoideum, UniProt Q553Y1).
T2 sequence (Q553Y1 1-369): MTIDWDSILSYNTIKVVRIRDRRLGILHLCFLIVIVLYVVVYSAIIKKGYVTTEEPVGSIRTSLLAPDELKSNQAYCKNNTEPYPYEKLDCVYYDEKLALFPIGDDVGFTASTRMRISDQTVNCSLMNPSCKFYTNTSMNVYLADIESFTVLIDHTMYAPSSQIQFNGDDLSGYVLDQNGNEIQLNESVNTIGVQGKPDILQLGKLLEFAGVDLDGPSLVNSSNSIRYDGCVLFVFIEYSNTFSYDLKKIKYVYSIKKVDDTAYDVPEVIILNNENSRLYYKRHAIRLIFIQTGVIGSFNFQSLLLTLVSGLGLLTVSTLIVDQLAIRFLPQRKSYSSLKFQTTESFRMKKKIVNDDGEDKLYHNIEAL
The description is as above. The test is classed as cell-based.

The target in test [2] is T1, dP2XE. Described as above. The class given is cell-based. The note with it: weak partial agonist; ND98K+, pH 6.2, −70 mV, room temperature.

dP2XA, sequence (Q86JM7 whole entry): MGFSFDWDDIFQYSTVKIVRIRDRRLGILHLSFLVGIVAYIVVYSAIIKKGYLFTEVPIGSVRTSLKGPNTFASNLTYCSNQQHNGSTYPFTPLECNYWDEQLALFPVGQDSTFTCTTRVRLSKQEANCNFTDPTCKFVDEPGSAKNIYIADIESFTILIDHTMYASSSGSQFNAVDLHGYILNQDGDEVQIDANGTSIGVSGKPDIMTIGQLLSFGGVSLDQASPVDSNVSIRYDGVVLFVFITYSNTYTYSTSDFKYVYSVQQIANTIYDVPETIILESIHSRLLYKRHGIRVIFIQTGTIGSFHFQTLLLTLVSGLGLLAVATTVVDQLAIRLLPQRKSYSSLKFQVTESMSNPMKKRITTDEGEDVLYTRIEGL

In the case of `Nc1ncnc2c1ncn2[C@@H]1O[C@H](COP(=O)(O)OP(=O)(O)OP(=O)(O)O)[C@@H](O)[C@H]1O` [ATP], the EC50 came out at 511 µM at dP2XE [1], 97 µM on dP2XA and 266 µM on dP2XB.
Regarding `Nc1ncnc2c1ncn2[C@@H]1O[C@H](COP(=O)(O)OP(=O)(O)NP(=O)(O)O)[C@@H](O)[C@H]1O` [β,γ-Imido-ATP], the results for the EC50 at dP2XA and on dP2XB were 3.1 µM and 85 µM, respectively. Further, the “maximal response, % that of ATP” value on dP2XE [2] turned out to be 22.3 ± 6.4%.
